Test results: patent publication US20240182531A1, “KV1.3 Blockers” (priority 2021, published 2024)
Where a SMILES comes first, the peptide text is derived from it. Bridges are numbered along the chain shown (N, C = ends). [ ]: non-standard residue; d: D form. Nle = CCCC[C@H](N)C(=O)O

Tests used:
[1] = biological target: Rat whole blood (Rattus norvegicus, UniProt P15384); assay type: cell-based; details: IL-17A release, thapsigargin, 24 Hr, at least 2 replicates
[2] = biological target: T1, human Kv1.2 (Homo sapiens, UniProt P16389); experiment: cell-based; details: ratio of patch clamp IC50 values
T1 construct: expressed in transfected cells; host or cells: CHO
T1 sequence (P16389 whole entry): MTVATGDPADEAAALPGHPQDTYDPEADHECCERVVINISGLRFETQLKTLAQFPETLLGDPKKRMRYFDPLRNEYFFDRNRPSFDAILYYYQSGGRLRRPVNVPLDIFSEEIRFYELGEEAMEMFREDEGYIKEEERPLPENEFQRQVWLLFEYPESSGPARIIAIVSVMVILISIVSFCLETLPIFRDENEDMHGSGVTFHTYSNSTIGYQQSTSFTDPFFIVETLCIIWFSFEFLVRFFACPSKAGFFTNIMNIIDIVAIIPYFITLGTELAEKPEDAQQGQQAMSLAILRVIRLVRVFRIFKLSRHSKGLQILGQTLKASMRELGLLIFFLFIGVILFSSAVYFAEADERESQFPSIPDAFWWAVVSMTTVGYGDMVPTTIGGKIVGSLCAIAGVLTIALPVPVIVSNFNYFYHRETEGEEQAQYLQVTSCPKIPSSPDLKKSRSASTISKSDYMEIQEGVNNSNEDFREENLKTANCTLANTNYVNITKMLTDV

[3] = biological target: T2, human Kv1.1 (Homo sapiens, UniProt Q09470); experiment: cell-based; details: ratio of patch clamp IC50 values
T2 construct: expressed in transfected cells; host or cells: CHO
T2 sequence (Q09470 whole entry): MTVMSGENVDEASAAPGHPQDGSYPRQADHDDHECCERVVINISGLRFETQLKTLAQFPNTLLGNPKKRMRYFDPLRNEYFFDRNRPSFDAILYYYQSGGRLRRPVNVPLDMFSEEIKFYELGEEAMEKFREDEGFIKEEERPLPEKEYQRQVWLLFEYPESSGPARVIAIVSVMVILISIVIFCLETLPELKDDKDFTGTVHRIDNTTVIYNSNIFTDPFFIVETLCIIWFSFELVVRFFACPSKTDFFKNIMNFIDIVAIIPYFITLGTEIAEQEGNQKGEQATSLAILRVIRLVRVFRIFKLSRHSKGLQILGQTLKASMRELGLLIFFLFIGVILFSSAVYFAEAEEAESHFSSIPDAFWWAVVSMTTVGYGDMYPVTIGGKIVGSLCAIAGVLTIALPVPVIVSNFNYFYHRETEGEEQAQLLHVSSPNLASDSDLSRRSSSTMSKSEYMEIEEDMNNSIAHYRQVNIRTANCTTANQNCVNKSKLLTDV

[4] = biological target: T3, human Kv1.6 (Homo sapiens, UniProt P17658); experiment: cell-based; details: ratio of patch clamp IC50 values
T3 construct: expressed in transfected cells; host or cells: CHO
T3 sequence (P17658 whole entry): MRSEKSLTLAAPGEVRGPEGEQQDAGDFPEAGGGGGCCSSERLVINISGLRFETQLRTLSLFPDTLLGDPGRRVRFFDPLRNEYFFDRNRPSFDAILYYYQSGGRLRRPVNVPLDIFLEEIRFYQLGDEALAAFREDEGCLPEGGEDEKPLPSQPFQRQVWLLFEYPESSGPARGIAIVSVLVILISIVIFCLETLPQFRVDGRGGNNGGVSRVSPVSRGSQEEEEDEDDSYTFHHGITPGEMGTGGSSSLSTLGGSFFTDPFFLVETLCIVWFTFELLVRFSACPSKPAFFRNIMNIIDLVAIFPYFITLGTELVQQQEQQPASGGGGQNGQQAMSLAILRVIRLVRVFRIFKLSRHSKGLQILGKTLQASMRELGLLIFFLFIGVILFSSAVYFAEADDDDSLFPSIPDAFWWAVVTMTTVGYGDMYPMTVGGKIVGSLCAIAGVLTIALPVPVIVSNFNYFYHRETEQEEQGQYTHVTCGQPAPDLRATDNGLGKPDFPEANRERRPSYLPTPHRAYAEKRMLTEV

Chain of Rat whole blood (P15384 whole entry): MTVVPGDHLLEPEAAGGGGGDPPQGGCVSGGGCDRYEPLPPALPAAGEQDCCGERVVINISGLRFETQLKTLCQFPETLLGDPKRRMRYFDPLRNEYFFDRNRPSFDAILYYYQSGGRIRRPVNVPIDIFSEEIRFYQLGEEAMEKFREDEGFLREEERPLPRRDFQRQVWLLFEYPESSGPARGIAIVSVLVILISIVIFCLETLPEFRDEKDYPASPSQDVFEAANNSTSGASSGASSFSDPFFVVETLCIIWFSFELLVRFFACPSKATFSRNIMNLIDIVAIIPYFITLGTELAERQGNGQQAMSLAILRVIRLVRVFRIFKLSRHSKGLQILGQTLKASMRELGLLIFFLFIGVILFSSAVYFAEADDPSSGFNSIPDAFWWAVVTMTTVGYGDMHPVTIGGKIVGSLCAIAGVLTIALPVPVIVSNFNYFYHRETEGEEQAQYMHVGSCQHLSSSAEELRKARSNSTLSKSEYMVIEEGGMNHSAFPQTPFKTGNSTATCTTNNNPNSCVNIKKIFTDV

| Structure (SMILES) | IC50 [1] [nM] | Selectivity ratio Kv1.2/Kv1.3 [2] | Selectivity ratio Kv1.1/Kv1.3 [3] | Selectivity ratio Kv1.6/Kv1.3 [4] |
| --- | --- | --- | --- | --- |
| CCCC[C@@H]1NC(=O)[C@@H]2CSSC[C@H](NC(=O)[C@H](CCCNC(=N)N)NC(=O)[C@H](CCCC)NC(=O)[C@H](CC(=O)O)NC(=O)[C@@H](N)CCCC)C(=O)N[C@@H](CO)C(=O)N[C@@H](C)C(=O)N[C@@H](CO)C(=O)N[C@@H](C(C)C)C(=O)N[C@@H](CCC(=O)O)C(=O)N[C@H]3CSSC[C@H](NC(=O)[C@H](CCCCN)NC(=O)[C@H](CCCCN)NC(=O)[C@H](CC(N)=O)NC1=O)C(=O)N[C@@H](CCCCN)C(=O)N[C@H](C(=O)N[C@@H](Cc1ccc(O)cc1)C(=O)N1CCC[C@H]1C(=O)N[C@@H](CCCNC(=N)N)C(=O)O)CSSC[C@H](NC(=O)[C@H](CCCCN)NC(=O)[C@H](CCC(N)=O)NC(=O)[C@H](CCCCN)NC3=O)C(=O)N[C@@H](CC(C)C)C(=O)N[C@@H](CCCCN)C(=O)N[C@@H](C)C(=O)N[C@@H]([C@@H](C)CC)C(=O)NCC(=O)N[C@@H](CO)C(=O)N[C@@H]([C@@H](C)CC)C(=O)N[C@@H](Cc1ccccc1)C(=O)NCC(=O)N[C@@H](CCCCN)C(=O)N2 [compound 90] (H-[Nle]D[Nle]RCSASVECKQKCLKAIGSIFGKC[Nle]NKKCKCYPR-OH; disulfide 5-26, 11-31, 15-33) | 0.55 | 11034 | >17800 | >17800 |
| CCCC[C@@H]1NC(=O)[C@@H]2CSSC[C@H](NC(=O)[C@H](CCCNC(=N)N)NC(=O)[C@H](CCCC)NC(=O)[C@H](CO)NC(=O)[C@H](CCCC)NC(=O)[C@@H](N)CC(N)=O)C(=O)N[C@@H](CO)C(=O)N[C@@H](C)C(=O)N[C@@H](CO)C(=O)N[C@@H](C(C)C)C(=O)N[C@@H](CCC(=O)O)C(=O)N[C@H]3CSSC[C@H](NC(=O)[C@H](CCCCN)NC(=O)[C@H](CCCCN)NC(=O)[C@H](CC(N)=O)NC1=O)C(=O)N[C@@H](CCCCN)C(=O)N[C@H](C(=O)N[C@@H](Cc1ccc(O)cc1)C(=O)N1CCC[C@H]1C(=O)N[C@@H](CCCNC(=N)N)C(N)=O)CSSC[C@H](NC(=O)[C@H](CCCCN)NC(=O)[C@H](CCC(N)=O)NC(=O)[C@H](CCCCN)NC3=O)C(=O)N[C@@H](CC(C)C)C(=O)N[C@@H](CCCCN)C(=O)N[C@@H](C)C(=O)N[C@@H]([C@@H](C)CC)C(=O)NCC(=O)N[C@@H](CO)C(=O)N[C@@H]([C@@H](C)CC)C(=O)N[C@@H](Cc1ccccc1)C(=O)NCC(=O)N[C@@H](CCCCN)C(=O)N2 [compound 50] (H-N[Nle]S[Nle]RCSASVECKQKCLKAIGSIFGKC[Nle]NKKCKCYPR-NH2; disulfide 6-27, 12-32, 16-34) | 0.79 | 943 | >9400 | 4359 |
| CC[C@H](C)[C@@H]1NC(=O)[C@H](C)NC(=O)[C@H](CCCCN)NC(=O)[C@H](CC(C)C)NC(=O)[C@@H]2CSSC[C@@H](C(=O)N[C@@H](Cc3ccc(O)cc3)C(=O)N3CCC[C@H]3C(=O)N[C@@H](CCCNC(=N)N)C(N)=O)NC(=O)[C@H](CCCCN)NC(=O)[C@@H]3CSSC[C@H](NC(=O)[C@H](CCC(=O)O)NC(=O)[C@H](C(C)C)NC(=O)[C@H](CO)NC(=O)[C@H](C)NC(=O)[C@H](CO)NC(=O)[C@@H](NC(=O)[C@H](CCCNC(=N)N)NC(=O)[C@H](CCSC)NC(=O)[C@H](CC(=O)O)NC(=O)[C@H](CCSC)NC(=O)[C@@H](N)CC(N)=O)CSSC[C@H](NC(=O)[C@H](CCCCN)NC(=O)CNC(=O)[C@H](Cc4ccccc4)NC(=O)[C@H]([C@@H](C)CC)NC(=O)[C@H](CO)NC(=O)CNC1=O)C(=O)N[C@@H](CCSC)C(=O)N[C@@H](CC(N)=O)C(=O)N[C@@H](CCCCN)C(=O)N[C@@H](CCCCN)C(=O)N3)C(=O)N[C@@H](CCCCN)C(=O)N[C@@H](CCC(=O)O)C(=O)N[C@@H](CCCCN)C(=O)N2 [compound 35] (H-NMDMRCSASVECKEKCLKAIGSIFGKCMNKKCKCYPR-NH2; disulfide 6-27, 12-32, 16-34) | 0.86 | 648 | >10800 | >10800 |
| CC[C@H](C)[C@@H]1NC(=O)[C@H](C)NC(=O)[C@H](CCCCN)NC(=O)[C@H](CC(C)C)NC(=O)[C@@H]2CSSC[C@@H](C(=O)N[C@@H](Cc3ccc(O)cc3)C(=O)N3CCC[C@H]3C(=O)N[C@@H](CCCNC(=N)N)C(N)=O)NC(=O)[C@H](CCCCN)NC(=O)[C@@H]3CSSC[C@H](NC(=O)[C@H](CCC(=O)O)NC(=O)[C@H](C(C)C)NC(=O)[C@H](CO)NC(=O)[C@H](C)NC(=O)[C@H](CO)NC(=O)[C@@H](NC(=O)[C@H](CCCNC(=N)N)NC(=O)[C@H](CCSC)NC(=O)[C@H](CC(=O)O)NC(=O)[C@H](CCSC)NC(=O)[C@@H](N)CC(N)=O)CSSC[C@H](NC(=O)[C@H](CCCCN)NC(=O)CNC(=O)[C@H](Cc4ccccc4)NC(=O)[C@H]([C@@H](C)CC)NC(=O)[C@H](CO)NC(=O)CNC1=O)C(=O)N[C@@H](CCSC)C(=O)N[C@@H](CC(N)=O)C(=O)N[C@@H](CCCCN)C(=O)N[C@@H](CCCCN)C(=O)N3)C(=O)N[C@@H](CC(C)C)C(=O)N[C@@H](CCC(N)=O)C(=O)N[C@@H](CCCCN)C(=O)N2 [compound 33] (H-NMDMRCSASVECLQKCLKAIGSIFGKCMNKKCKCYPR-NH2; disulfide 6-27, 12-32, 16-34) | 0.76 | 2163 | >7400 | >7400 |
| CCCC[C@@H]1NC(=O)[C@@H]2CSSC[C@H](NC(=O)[C@H](CCCCN)NC(=O)[C@H](CO)NC(C)=O)C(=O)N[C@@H](CO)C(=O)N[C@@H](C)C(=O)N[C@@H](CO)C(=O)N[C@@H](C(C)C)C(=O)N[C@@H](CCC(=O)O)C(=O)N[C@H]3CSSC[C@H](NC(=O)[C@H](CCCCN)NC(=O)[C@H](CCCCN)NC(=O)[C@H](CC(N)=O)NC1=O)C(=O)N[C@@H](CCCCN)C(=O)N[C@H](C(=O)N[C@@H](Cc1ccc(O)cc1)C(=O)N1CCC[C@H]1C(=O)N[C@@H](CCCNC(=N)N)C(N)=O)CSSC[C@H](NC(=O)[C@H](CCCCN)NC(=O)[C@H](CCC(N)=O)NC(=O)[C@H](CCCCN)NC3=O)C(=O)N[C@@H](CC(C)C)C(=O)N[C@@H](CCCCN)C(=O)N[C@@H](C)C(=O)N[C@@H]([C@@H](C)CC)C(=O)NCC(=O)N[C@@H](CO)C(=O)N[C@@H]([C@@H](C)CC)C(=O)N[C@@H](Cc1ccccc1)C(=O)NCC(=O)N[C@@H](CCCCN)C(=O)N2 [compound 101] (Ac-SKCSASVECKQKCLKAIGSIFGKC[Nle]NKKCKCYPR-NH2; disulfide 3-24, 9-29, 13-31) | 0.36 | 196 | >3000 | 1451 |
